Data as given in patent US12021195B2, “Asymmetric electrolyte salts and batteries incorporating such salts” (OHIO STATE INNOVATION FOUNDATION, priority 2019, dated 2024).
Where two headings read alike, the source gives them in different places.

How the values were obtained:
[1] = Ionic conductivity measurements; type: physicochemical
Description: Ionic Conductivity Measurements A homemade conductivity cell was constructed with two polished stainless steel parallel plates (˜0.3 cm^2) separated by ˜0.2 cm in a Teflon cup. The entire cell was placed in a sealed vial to minimize electrolyte evaporation. To calibrate the cell constant, two conductivity standards (Sigma Aldrich) were used, 25 and […]. The calibrated cell constant was calculated to be 0.706 cm′±0.008 cm^−1. […] […] The electrochemical impedance spectrum was collected from 1 MHz to 0.5 Hz with an AC amplitude of 10 mV. The electrolyte resistance was taken as the impedance where the phase angle is as close to […] as possible in order to minimize any contribution from capacitance or inductance. All conductivity measurements were performed in an argon filled glove box.

[2] = Solubility of potassium salts in DME; conditions: mol fraction of salt
[3] = Cyclic voltammetry, oxidative stability window in diglyme
Description: The counter electrode was lithium metal. […] The scan rate for each CV measurement was 50 mV/s. The Al dissolution resistance was measured by cyclic voltammetry of a 2-electrode Li∥Al CR2032 coin cell. The potential was swept from 2 V to 6.1 V for a total of 5 cycles. The cell consisted of Li foil and aluminum foil (1.77 cm^2) separated by a 25 μm trilayer celgard membrane (polypropylene-polyethylene-polypropylene).
Since it has been reported that increasing the salt concentration also improves the electrochemical window,^103,107 the stability window of each electrolyte at its highest concentration was examined. In a 3-electrode cell using a platinum working electrode, Li metal counter and a silver wire reference to avoid electrolyte contamination, cyclic voltammetry was used to examine the oxidative window. Multiple scans were collected to see if there was any change with repeat cycling to highly positive voltages (FIG. 5). As a comparison, the most concentrated possible LiTFSI solution (0.2 mol fraction) was also tested.

[4] = Solubility of lithium salts in diglyme; type: physicochemical
Text: In order to probe structure-property relationships among sulfonamide salts, the ionic conductivity was investigated in diglyme solvent and compared with that of LiTFSI. Ethers such as diglyme have strong Lewis basicity, high chemical stability and can dissolve lithium salts via Li+ cation coordination by the lone pair on the oxygen atom.^105 However, the solubility of LiTFSI is relativity low and cannot access the concentrated electrolyte regime. This is in stark contrast to all of the sulfonamide salts investigated here. The solubility of the salts increase in the order LiTFSI<LiMPSA<LiFBSA≈LiFPSA≈LiDESA. To the best of the inventors' knowledge, in ether solvent, these sulfonamide salts have the highest solubility among any lithium salt (0.4× salt, molar ratio diglyme: Salt […]). The ionic conductivity of these electrolytes were investigated as a function of concentration (FIG. 4). The sulfonamide based electrolytes span a much larger concentration range of up to 0.4 mol fraction, where LiTFSI can only be increased up to 0.2 mol fraction. […] This could be due to reduced viscosity of the electrolytes with fluorinated derivatives as well as the ability of the ether oxygen within LiMPSA and LiDESA to coordinate the lithium cation even at low concentrations in a similar fashion to that of diglyme solvent. […]

Q: For `COCCC[N-]S(=O)(=O)C(F)(F)F.[K+]` [KMPSA], which ionic conductivity ([1]; 0.6× KMPSA/DME electrolyte, 25° C.) is on record?
A: Its ionic conductivity is 0.037 mS/cm.

Q: What about the ionic conductivity ([1]; molten salt, 45° C.) of the same compound?
A: The ionic conductivity was 0.003 mS/cm.

Q: And the “solubility (mol fraction that can be reached)” value [2]?
A: The value was 0.6 X.

Q: Which “solubility (mol fraction that can be reached)” value [2] does the source give for `O=S(=O)([N-]S(=O)(=O)C(F)(F)F)C(F)(F)F.[K+]` [KTFSI, potassium bis(trifluoromethanesulfonyl)imide, reference compound] here?
A: Its value is about 0.34 X.

Q: With `O=S(=O)([N-]CC(F)(F)C(F)(F)F)C(F)(F)F.[Li+]` [LiFPSA] as the compound, how does the “ionic conductivity compared with salts with an incorporated ether group” value ([1]; in diglyme) read?
A: Its value is “higher ionic conductivity”.

Q: And the “oxidative stability window (in words)” value [3]?
A: The value was “smallest stability window”.

Q: With `COCCC[N-]S(=O)(=O)C(F)(F)F.[Li+]` [LiMPSA] as the compound, how does the “oxidative stability window (in words)” value [3] read?
A: The value was “one of the highest stabilities”.

Q: And the “potential out to which cycles after the first show high stability” value [3]?
A: Its value is 6-7 V.

Q: Which “solubility (highest concentration reached)” value [4] does the source give for `O=S(=O)([N-]S(=O)(=O)C(F)(F)F)C(F)(F)F.[Li+]` [LiTFSI, lithium bis(trifluoromethanesulfonyl)imide, reference compound] here?
A: Its value is “up to 0.2 mol fraction”.

Q: And the “potential above which rapid decomposition occurs” value ([3]; 0.2 mol fraction in diglyme, Pt working electrode, 50 mV/s)?
A: The value was “above 5 V”.

Q: And the “oxidative stability window (in words)” value ([3]; each electrolyte at its highest concentration in diglyme (LiTFSI 0.2, LiFPSA 0.4, LiDESA 0.4, LiMPSA 0.33 mol fraction))?
A: The value was “one of the lowest stabilities”.
